In patent US5847159A, “1-[ω-(3,4-dihydro-2-naphthalenyl)alkyl]-cyclic amine derivatives, process for preparing the same, and pharmaceutical composition containing the same” (priority 1995, dated 1998):
Where a name gives a salt, the structure may show the parent alone.

System: rhythmic bladder contractions (micturition reflex)
Experiment: Inhibitory effect on rhythmic bladder contractions (micturition reflex)
Format: in vivo, Female Std-Wistar rats
Settings: i.d., rat; for inhibition in vivo at 10 mg/kg / inhibition in vivo at 30 mg/kg: intraduodenal, mean over two hours, read-out: Inhibitory rate on contractile frequency; for inhibition in vivo at 10 mg/kg / ED50 / inhibition in vivo at 30 mg/kg: 2 h; for ED50: two hours, read-out: ED50, inhibitory effect on contractile frequency; for Potency on frequency of rhythmic bladder contractions relative to inaperisone hydrochloride (Compound A): compared with Compound A
Procedure: Inhibitory effect on rhythmic bladder contractions (micturition reflex)
The experiment was carried out according to the method of Maggi, C. […] It is generally accepted that the rhythmic bladder contractions evoked by instillation of saline solution into the bladder are mediated via the micturition reflex pathway like that of natural urination.
Female Std-Wistar rats weighing 160-190 g were used in groups of 3-4 animals. Under urethane anesthesia (1 g/kg, s.c.), both ureters were tied and cut at the side of kidney after a mid line incision of the abdomen. A cannula, connected to a syringe and a pressure transducer, was inserted into the bladder via the external urethral orifice and ligated around the proximal urethra. The animal was allowed to stay for about 30 minutes after the operation. The bladder was slowly filled with warm saline solution (0.4-1 ml) by means of a syringe until rhythmic contractions were induced. The change of the intravesical pressure was recorded on a recorder via a pressure transducer. After the rhythmic contractions became constant, test compounds dissolved or suspended in 0.5% aqueous tragacanth solution were administered via the cannula inserted for intraduodenal administration. The effect of each compound on the contractile frequency was investigated every 15 minutes till two hours after the administration.
The inhibitory rate on the contractile frequency (two hours) was expressed as the mean value of the inhibitory rates at an every 15-minute interval for two hours after the administration, which was determined based on the contractile frequency for 15 minutes before the administration.

Compound	inhibition in vivo at 10 mg/kg [%]	Effect on the amplitude of contraction	further results
C1=C(CCN2CCCC2)CCc2cc3c(cc21)CCC3 [Ex. 47]	37		
Cc1cc2c(cc1C)CCC(CCN1C(C)CCC1C)=C2 (centres unmarked) [Ex. 50, 1-[2-(3,4-dihydro-6,7-dimethyl-2-naphthalenyl)ethyl]-2,5-dimethylpyrolidin]	50	suppressed the amplitude of contraction	
COc1cc2c(cc1C)CCC(CCN1CCCC1)=C2 [Ex. 68, 1-[2-(3,4-dihydro-7-methoxy-6-methyl-2-naphthalenyl)ethyl]pyrrolidine]		suppressed the amplitude of contraction	ED50: 7.4 mg/kg; Potency on frequency of rhythmic bladder contractions relative to inaperisone hydrochloride (Compound A): ~4.7 times more potent
Cc1cc2c(cc1C)CCC(CCN1CCC(O)C1)=C2 (centres unmarked) [Ex. 66]	34		
Fc1cccc2c1CCC(CCN1CCCCC1)=C2 [Ex. 8]			inhibition in vivo at 30 mg/kg: 62%
C1=C(CCN2CCCC2)CCc2cc3c(cc21)OCO3 [Ex. 49]	46	suppressed the amplitude of contraction	
COc1ccc2c(c1)C=C(CCN1CCCCC1)CC2 [Ex. 34]			inhibition in vivo at 30 mg/kg: 65%
COc1cccc2c1CCC(CCCCCN1CCCCC1)=C2 [Ex. 32]	47		
Fc1ccc2c(c1)CCC(CCN1CCCC1)=C2 [Ex. 10]	33		
Fc1ccc2c(c1)C=C(CCN1CCCC1)CC2 [Ex. 12]	35	suppressed the amplitude of contraction	
Cc1cc2c(cc1C)CCC(CCN1CCCCCC1)=C2 [Ex. 44]	34		
Fc1ccc(F)c2c1C=C(CCN1CCCC1)CC2 [Ex. 55]	43		
CCc1cc2c(cc1CC)CCC(CCN1CCCC1)=C2 [Ex. 46, 1-[2-(6,7-diethyl-3,4-dihydro-2-naphthalenyl)ethyl]pyrrolidine]			ED50: 12.4 mg/kg
Fc1cccc2c1CCC(CCN1CCCCCC1)=C2 [Ex. 9]	47		
C1=C(CCCN2CCCCC2)CCc2ccccc21 [Ex. 3]	38	suppressed the amplitude of contraction	
COc1cccc2c1CCC(CCN1CCCCC1)=C2 [Ex. 26]		suppressed the amplitude of contraction	ED50: 29.1 mg/kg
Fc1cc(F)c2c(c1)C=C(CCN1CCCC1)CC2 [Ex. 52, 1-[2-(5,7-difluoro-3,4-dihydro-2-naphthalenyl)ethyl]-pyrrolidine]	52		
Cc1cc2c(cc1C)CCC(CCN1CCCCCCC1)=C2 [Ex. 45]	48		

Compound	inhibition in vivo at 10 mg/kg [%]	Effect on the amplitude of contraction	further results
Cc1cc2c(cc1CO)CCC(CCN1CCCC1)=C2 [Ex. 72, 1-[2-(3,4-dihydro-6-hydroxymethyl-7-methyl-2-naphthalenyl)ethyl]pyrrolidin]	49	suppressed the amplitude of contraction	
COC(=O)c1ccc2c(c1)C=C(CCN1CCCC1)CC2 [Ex. 56, 1-[2-(3,4-Dihydro-7-methoxycarbonyl-2-naphthalenyl)ethyl]pyrrolidine]	34	suppressed the amplitude of contraction	
Fc1ccc2c(c1F)CCC(CCN1CCCC1)=C2 [Ex. 54]	43		
Clc1ccc2c(c1)C=C(CCN1CCCC1)CC2 [Ex. 15]	44		
Clc1cccc2c1CCC(CCN1CCCC1)=C2 [Ex. 14]	49		
Fc1ccc2c(c1)C=C(CCN1CCCCC1)CC2 [Ex. 13]			inhibition in vivo at 30 mg/kg: 77%
COc1ccc2c(c1)C=C(CCN1CCCC1)CC2 [Ex. 58, 1-[2-(3,4-dihydro-7-methoxy-2-naphthalenyl)ethyl]-pyrrolidine]	34		
Fc1cccc2c1CCC(CCN1CCC(F)C1)=C2 (centres unmarked) [Ex. 53]	35		
COc1cc2c(cc1OC)CCC(CCN1CCCC1)=C2 [Ex. 62, 1-[2-(3,4-dihydro-6,7-dimethoxy-2-naphthalenyl)ethyl]-pyrrolidine]		suppressed the amplitude of contraction	ED50: 6.1 mg/kg; Potency on frequency of rhythmic bladder contractions relative to inaperisone hydrochloride (Compound A): approximately 5.7 times more potent
Cc1cccc2c1CCC(CCN1CCCCC1)=C2 [Ex. 18]			inhibition in vivo at 30 mg/kg: 51%
Fc1ccc2c(c1)CCC(CCN1CCCCC1)=C2 [Ex. 11]			inhibition in vivo at 30 mg/kg: 60%
C1=C(CCCCN2CCCC2)CCc2ccccc21 [Ex. 4]		suppressed the amplitude of contraction	ED50: 11.4 mg/kg; Potency on frequency of rhythmic bladder contractions relative to inaperisone hydrochloride (Compound A): ~3 times more potent
C1=C(CCCCN2CCCCC2)CCc2ccccc21 [Ex. 6]	42		
Cc1ccc2c(c1)C=C(CCN1CCCC1)CC2 [Ex. 20]		suppressed the amplitude of contraction	inhibition in vivo at 30 mg/kg: 67%
OC1CCN(CCC2=Cc3ccccc3CC2)C1 (centres unmarked) [Ex. 60, 1-[2-(3,4-Dihydro-2-naphthalenyl)ethyl]-3-hydroxypyrrolidine hydrochloride]	33		
Fc1cc2c(cc1F)CCC(CCN1CCCC1)=C2 [Ex. 36, 1-[2-(6,7-difluoro-3,4-dihydro-2-naphthalenyl)ethyl]pyrrolidine]		suppressed the amplitude of contraction	ED50: 12.9 mg/kg; Potency on frequency of rhythmic bladder contractions relative to inaperisone hydrochloride (Compound A): ~3 times more potent
Cc1cc2c(cc1C(=O)O)CCC(CCN1CCCC1)=C2 [Ex. 74, 1-[2-(6-carboxy-3,4-dihydro-7-methyl-2-naphthalenyl)-ethyl]pyrrolidine]	42		
Cc1cc2c(cc1C)CCC(CCN1CCC1)=C2 [Ex. 41]	38	suppressed the amplitude of contraction	
